Results on five compounds are retold here after publication PMC9223267, “Serine hydroxymethyltransferase as a potential target of antibacterial agents acting synergistically with one-carbon metabolism-related inhibitors” (Communications Biology, 2022).

Where two headings read alike, the source gives them in different places.

In test [1] the test system is E. faecium. The experiment in a line: Antibacterial activity evaluation (turbidity, OD600). The format is cell-based, Enterococcus faecium (JCM5804). As to conditions: Enterococcus faecium, E. faecium JCM5804. As to the method: (§1) E. faecium and E. faecalis were diluted to turbidity equivalents that matched 1.0 McFarland (McF) standard in distilled water (S. aureus and E. coli were also diluted to 0.5 McF), and additionally diluted 1:200 in Mueller–Hinton (MH) broth. The designated concentrations of the tested compounds were prepared by ten-fold serial dilutions directly in 96-well microtiter plates (IWAKI, Shizuoka, Japan), as previously described. […] The other compounds were serially diluted from 20 μM downwards (final concentration, 10 μM). […] Positive control wells included bacteria without any compound, and the negative control wells only contained MH broth. […] The optical density at 600 nm (OD600) was measured using a GloMax microtiter plate reader (Promega, WI, USA), and the EC50 values of each test compound and standard error were calculated by Microsoft Excel function, AVERAGE and STDEV/SQRT.

Test [2] concerns S. aureus. The test is described as above. The format is cell-based, Staphylococcus aureus (ATCC29213). As to conditions: Staphylococcus aureus, S. aureus ATCC29213. The method, then: as §1
Test [3] deals with E. faecium. Kind of test: Antibacterial assay with an excess concentration of biomolecules (Ser, Gly, inosine, dT, FA). The format is cell-based, Enterococcus faecium (JCM5804). To be noted: Enterococcus faecium. As to the method:
as §1
The ratio of the control EC50 (no competitors added) to the experimental EC50 (competitors added) was calculated for each test substance.

Test [4] deals with E. coli. Kind of test: Antibacterial activity evaluation (turbidity, OD600). The format is cell-based, Escherichia coli (ATCC25922). As to conditions: Escherichia coli, E. coli ATCC25922. As to the method:
as §1

Test [5] deals with E. faecalis. The description is as above. The format is cell-based, Enterococcus faecalis (JCM7783). To be noted: Enterococcus faecalis, E. faecalis JCM7783. The method, then: as §1
Test [6] has as its system E. faecium. Kind of test: Bacterial viability assay (Microbial Viability Assay Kit-WST, OD450). The format is cell-based, Enterococcus faecium. As to the method:
Living E. faecium were determined using the Microbial Viability Assay Kit-WST (DOJINDO, Tokyo, Japan). […] Positive control wells included bacteria seeded into MH broth without compounds, and the negative control wells contained MH broth only. […] Five microlitres of the colouring reagent were added to each well of the 96-well plate every 2 h after starting incubation with each compound.

The mark [7] stands for this setting: read-out: pEC50 ± S.E. (converted).
Where [8] appears, read: JCM5804, E. faecium JCM5804, 1 mM Inosine, read-out: EC50.
[9] abbreviates: JCM5804, E. faecium JCM5804, 1 mM Inosine, read-out: pEC50 ± S.E. (converted).
[10] abbreviates: JCM5804, E. faecium JCM5804, 1 mM deoxythymidine, read-out: EC50.
The mark [11] stands for this setting: JCM5804, E. faecium JCM5804, 1 mM deoxythymidine, read-out: pEC50 ± S.E. (converted).
[12] abbreviates: JCM5804, E. faecium JCM5804, 10 mM Glycine, read-out: EC50.
Setting [13] is: JCM5804, E. faecium JCM5804, 10 mM Glycine, read-out: pEC50 ± S.E. (converted).
[14] abbreviates: JCM5804, E. faecium JCM5804, 100 mM Serine, read-out: EC50.
[15] abbreviates: JCM5804, E. faecium JCM5804, 100 mM Serine, read-out: pEC50 ± S.E. (converted).
[16] abbreviates: JCM5804, E. faecium JCM5804, 0.1 M folate, read-out: EC50.
The mark [17] stands for this setting: JCM5804, E. faecium JCM5804, 0.1 M folate, read-out: pEC50 ± S.E. (converted).

Regarding `O=c1[nH]c(=O)n([C@@H]2O[C@H](CO)[C@@H](O)[C@H]2O)cc1F` [5-FUrd, 5-fluorouridine], the EC50 in test [1] (read-out: EC50) was 73 nM; in test [1] (setting [7]), 79.4 nM; in test [2] (read-out: EC50) it was 30 nM; in test [2] (setting [7]), 31.6 nM; in test [3] (setting [8]) it was 720 nM; in test [3] (setting [9]), 794 nM. Moreover, the EC50 in test [3] (setting [10]) is 21000 nM; in test [3] (setting [11]), 20000 nM; in test [3] (setting [12]) it was 65 nM; in test [3] (setting [13]) it was 79.4 nM; in test [3] (setting [14]), 98 nM; in test [3] (setting [15]) it was 100 nM. For the same compound, the EC50 in test [3] (setting [16]) is 270 nM; in test [3] (setting [17]), 251 nM; in test [4] (read-out: EC50), 10000 nM; in test [4] (setting [7]), 10000 nM; in test [5] (read-out: EC50) it was 380 nM; in test [5] (setting [7]) it was 398 nM.

In the case of `O=c1[nH]c(=O)n([C@H]2C[C@H](O)[C@@H](CO)O2)cc1F` [5-FdU, 5-fluoro-2′-deoxyuridine], the EC50 is 29 nM in test [1] (read-out: EC50); 31.6 nM in test [1] (setting [7]); 8.9 nM in test [2] (read-out: EC50); 7.94 nM in test [2] (setting [7]); 24 nM in test [3] (setting [8]); 25.1 nM in test [3] (setting [9]). Also, the EC50 was > 100000 nM in test [3] (setting [10]); > 100000 nM in test [3] (setting [11]); 6.4 nM in test [3] (setting [12]); 6.31 nM in test [3] (setting [13]); 32 nM in test [3] (setting [14]); 31.6 nM in test [3] (setting [15]). Moreover, the EC50 is 190 nM in test [3] (setting [16]); 200 nM in test [3] (setting [17]); 10000 nM in test [4] (read-out: EC50); 10000 nM in test [4] (setting [7]); 310 nM in test [5] (read-out: EC50); 316 nM in test [5] (setting [7]).

As for `Cc1nc2ccc(CN(C)c3ccc(C(=O)N[C@@H](CCC(=O)O)C(=O)O)s3)cc2c(=O)[nH]1` [RTX, raltitrexed], the EC50 was 13 nM in test [1] (read-out: EC50); 12.6 nM in test [1] (setting [7]); > 100000 nM in test [2] (read-out: EC50); > 100000 nM in test [2] (setting [7]); 8.2 nM in test [3] (setting [8]); 7.94 nM in test [3] (setting [9]). Also, the EC50 is > 100000 nM in test [3] (setting [10]); > 100000 nM in test [3] (setting [11]); 10 nM in test [3] (setting [12]); 10 nM in test [3] (setting [13]); 14 nM in test [3] (setting [14]); 12.6 nM in test [3] (setting [15]). Besides, the EC50 in test [3] (setting [16]), in test [3] (setting [17]), in test [4] (read-out: EC50), in test [4] (setting [7]), in test [5] (read-out: EC50) and in test [5] (setting [7]) was > 100000 nM throughout.

Take `CN[C@H](CC(C)C)C(=O)N[C@H]1C(=O)N[C@@H](CC(N)=O)C(=O)N[C@H]2C(=O)N[C@H]3C(=O)N[C@H](C(=O)N[C@H](C(=O)O)c4cc(O)cc(O)c4-c4cc3ccc4O)[C@H](O)c3ccc(c(Cl)c3)Oc3cc2cc(c3O[C@@H]2O[C@H](CO)[C@@H](O)[C@H](O)[C@H]2O[C@H]2C[C@](C)(N)[C@H](O)[C@H](C)O2)Oc2ccc(cc2Cl)[C@H]1O` [VCM, vancomycin]: the EC50 in test [1] (VCM in μg/mL, read-out: EC50) was 0.31 µg/mL; in test [2] (VCM in μg/mL, read-out: EC50), 0.36 µg/mL; in test [3] it was 0.29 µg/mL; in test [3] (VCM in μg/mL, 1 mM Inosine, read-out: EC50), 0.34 µg/mL; in test [3] (VCM in μg/mL, 1 mM deoxythymidine, read-out: EC50), 0.42 µg/mL; in test [3] (VCM in μg/mL, 100 mM Serine, read-out: EC50), 0.3 µg/mL. The EC50 in test [3] (VCM in μg/mL, 0.1 M folate, read-out: EC50) is 0.31 µg/mL; in test [4] (VCM in μg/mL, read-out: EC50) it was > 100 µg/mL; in test [5] (VCM in μg/mL, read-out: EC50), 3.2 µg/mL.

In the case of `NCC(=O)O` [glycine], the values for the Relative bacterial viability in test [6] (50 mM glycine (Supplementary Fig. S2)) and in test [6] (100 mM glycine (Supplementary Fig. S2)) were ~ 0.75 and ~0.40, respectively.
